Calls of active or inactive are those of the source.
Legend:
[1] = molecular target: T1, Low molecular weight phosphotyrosine protein phosphatase (Homo sapiens, UniProt P24666); assay: inhibition of LMPTP-A enzymatic activity – biochemical, OMFP substrate, fluorescence intensity, set 2, dose response (AID 743307); assay type: functional
T1 sequence (P24666 whole entry): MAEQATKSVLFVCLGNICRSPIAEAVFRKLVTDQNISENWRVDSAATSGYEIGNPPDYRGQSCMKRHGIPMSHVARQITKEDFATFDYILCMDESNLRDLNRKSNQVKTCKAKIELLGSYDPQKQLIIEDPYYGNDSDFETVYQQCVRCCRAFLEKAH

[2] = molecular target: T1, Low molecular weight phosphotyrosine protein phosphatase; assay: inhibition of human LMPTP enzyme activity – biochemical, absorbance, pNPP substrate, LMPTP-A isoform, set 2, orthogonal assay, dose response (AID 743308); assay type: functional
[3] = viability reduction in hepatoma cells – cell-based, ATP luminescence, dry powder, Set4, cytotoxicity control, dose response (AID 743143); assay type: functional; conditions: HepG2
[4] = viability loss in A549 lung cancer cells – cell-based, CellTiter-Glo luminescence, dry powder, set 3, cytotoxicity control, dose response (AID 743146); assay type: functional
[5] = molecular target: NAD-dependent protein deacylase sirtuin-5, mitochondrial (Homo sapiens, UniProt Q9NXA8); assay: blockers of sirtuin-5 peptide desuccinylation – biochemical, fluorescence imaging, cherry-pick, set 6, dose response (AID 720597)
NAD-dependent protein deacylase sirtuin-5, mitochondrial, sequence (Q9NXA8 whole entry): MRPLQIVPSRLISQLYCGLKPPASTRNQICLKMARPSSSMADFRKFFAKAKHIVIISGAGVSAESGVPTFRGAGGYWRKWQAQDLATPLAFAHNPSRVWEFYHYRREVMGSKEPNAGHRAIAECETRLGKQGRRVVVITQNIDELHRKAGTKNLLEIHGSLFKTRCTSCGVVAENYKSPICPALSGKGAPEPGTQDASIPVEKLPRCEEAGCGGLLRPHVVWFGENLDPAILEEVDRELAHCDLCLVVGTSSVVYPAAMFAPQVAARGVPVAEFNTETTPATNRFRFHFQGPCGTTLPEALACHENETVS

BJ [6] = assay: cells; assay type: functional, cell-based; conditions: Homo sapiens
BJ [7] = assay: BJ-TERT-LT-ST fibroblast viability loss – cell-based, RAS-independent, luminescence, dose response (AID 1935); assay type: functional; conditions: Homo sapiens;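 further: BJ fibroblasts immortalized with TERT plus LT and ST oncogenes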
[8] = molecular target: RNA-editing ligase 1, mitochondrial (Trypanosoma brucei brucei, UniProt P86926); assay: inhibition of trypanosome RNA editing ligase – biochemical, fluorescence, Trypanosoma brucei, dose response (AID 1117295); assay type: functional
RNA-editing ligase 1, mitochondrial, sequence (P86926 whole entry): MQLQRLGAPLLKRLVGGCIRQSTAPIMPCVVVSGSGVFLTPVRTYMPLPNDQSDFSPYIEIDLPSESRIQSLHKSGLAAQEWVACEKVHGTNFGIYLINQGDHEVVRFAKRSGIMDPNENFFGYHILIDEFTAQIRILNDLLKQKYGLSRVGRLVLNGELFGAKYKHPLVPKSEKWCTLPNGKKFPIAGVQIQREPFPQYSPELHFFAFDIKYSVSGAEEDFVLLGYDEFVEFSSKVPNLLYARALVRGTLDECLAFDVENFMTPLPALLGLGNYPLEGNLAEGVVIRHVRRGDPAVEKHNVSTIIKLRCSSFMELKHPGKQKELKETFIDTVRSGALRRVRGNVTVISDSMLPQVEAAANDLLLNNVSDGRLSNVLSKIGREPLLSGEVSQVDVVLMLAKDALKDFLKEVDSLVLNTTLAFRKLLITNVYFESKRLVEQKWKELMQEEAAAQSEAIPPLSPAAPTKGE

[9] = HEK-293T viability loss after treatment – luminescence, T-cell screen hits, cytotoxicity control for TCR NF-kB inhibitor project, dose response (AID 489026); assay type: functional, cell-based;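 further: cells exposed to compound about 14 hours before the viability readout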
BJ [10] = assay: BJ-TERT fibroblast viability loss – cell-based, RAS-independent, luminescence, dose response (AID 1933); assay type: functional; conditions: Homo sapiens
[11] = DRD fibroblast viability loss – cell-based, non-viral oncogenic, luminescence, dose response (AID 1934); assay type: functional; conditions: Homo sapiens
[12] = viability loss in HepG2 liver cells – cell-based, ATP luminescence, cherry-pick, set 6, cytotoxicity control, dose response (AID 1053125); assay type: functional
cells [13] = conditions: HEK293
[14] = viability inhibitors of stage V gametocytes – luminescence, dose response (AID 1117278); assay type: functional, cell-based;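 further: gametocytes exposed to compound for 24 hours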
[15] = viability loss in human Jurkat cells – cell-based, luminescence, cytotoxicity control for P. falciparum gametocyte viability project, dose response (AID 1117277); assay type: functional;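 further: potency reflects loss of cellular ATP meaning fewer viable cells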
[16] = molecular target: ATP-dependent molecular chaperone HSP82 (Candida albicans (strain WO-1) (Yeast), UniProt C4YTQ8); assay: steroid-induced GRE reporter decrease in yeast – S. cerevisiae, luminescence, Hsp90 inhibitor project, dose response (AID 2400); assay type: functional, cell-based;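 further: beta-galactosidase luminescence from glucocorticoid response element reporter as proxy for Hsp90 function; inhibitor potency where signal loss means Hsp90 inhibition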
ATP-dependent molecular chaperone HSP82, sequence (C4YTQ8 whole entry): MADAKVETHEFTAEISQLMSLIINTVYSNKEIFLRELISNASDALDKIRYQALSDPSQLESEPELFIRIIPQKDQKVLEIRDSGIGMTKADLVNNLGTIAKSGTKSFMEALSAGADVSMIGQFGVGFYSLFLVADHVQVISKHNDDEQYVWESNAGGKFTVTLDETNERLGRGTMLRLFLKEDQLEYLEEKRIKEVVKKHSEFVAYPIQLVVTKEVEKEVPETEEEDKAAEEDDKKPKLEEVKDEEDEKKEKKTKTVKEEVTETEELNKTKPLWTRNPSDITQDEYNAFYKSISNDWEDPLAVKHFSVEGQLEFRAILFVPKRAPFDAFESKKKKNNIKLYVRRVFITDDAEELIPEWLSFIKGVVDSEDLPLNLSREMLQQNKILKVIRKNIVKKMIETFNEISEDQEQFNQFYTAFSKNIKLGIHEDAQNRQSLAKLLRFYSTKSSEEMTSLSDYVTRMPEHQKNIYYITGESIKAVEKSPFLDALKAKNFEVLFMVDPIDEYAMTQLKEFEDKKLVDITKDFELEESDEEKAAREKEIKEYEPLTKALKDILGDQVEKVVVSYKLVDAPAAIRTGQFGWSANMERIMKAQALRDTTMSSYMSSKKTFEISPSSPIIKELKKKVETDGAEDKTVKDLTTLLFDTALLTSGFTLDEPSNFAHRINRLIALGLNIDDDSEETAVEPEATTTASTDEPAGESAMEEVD

[17] = fluconazole-exposed Candida albicans growth modulators – fluorescence, retest, confirmation (AID 2467); assay type: functional, cell-based
Galanin receptor type 3 = Galanin receptor type 3 (Homo sapiens, UniProt O60755); assay: Fluorescence-based cell-based primary high throughput dose response assay to identify antagonists of the Galanin Receptor 3 (GalR3).; assay type: functional
Galanin receptor type 3, sequence (O60755 whole entry): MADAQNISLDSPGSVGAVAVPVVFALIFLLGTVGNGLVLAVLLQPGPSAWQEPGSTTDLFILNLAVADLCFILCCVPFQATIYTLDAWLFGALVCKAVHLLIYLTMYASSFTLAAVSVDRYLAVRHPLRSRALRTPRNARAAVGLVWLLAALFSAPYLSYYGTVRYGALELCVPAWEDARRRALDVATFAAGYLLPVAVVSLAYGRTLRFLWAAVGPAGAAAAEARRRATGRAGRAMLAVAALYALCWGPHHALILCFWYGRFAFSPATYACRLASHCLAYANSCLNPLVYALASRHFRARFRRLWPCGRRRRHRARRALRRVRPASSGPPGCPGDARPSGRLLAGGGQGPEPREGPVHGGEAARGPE

cells [18] = assay type: functional, cell-based; conditions: HEK-CNG
[19] = molecular target: COUP transcription factor 2 (Homo sapiens, UniProt P24468); assay: Luminescence-based cell-based high throughput dose response assay to identify inhibitors of COUP-TFII (NR2F2).; assay type: functional;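 further: HEK293 cells transiently cotransfected with COUP-TFII expression vector and reporter; luciferase reporter luminescence driven by COUP-TFII from the pX2-168 reporter plasmid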
COUP transcription factor 2, sequence (P24468 whole entry): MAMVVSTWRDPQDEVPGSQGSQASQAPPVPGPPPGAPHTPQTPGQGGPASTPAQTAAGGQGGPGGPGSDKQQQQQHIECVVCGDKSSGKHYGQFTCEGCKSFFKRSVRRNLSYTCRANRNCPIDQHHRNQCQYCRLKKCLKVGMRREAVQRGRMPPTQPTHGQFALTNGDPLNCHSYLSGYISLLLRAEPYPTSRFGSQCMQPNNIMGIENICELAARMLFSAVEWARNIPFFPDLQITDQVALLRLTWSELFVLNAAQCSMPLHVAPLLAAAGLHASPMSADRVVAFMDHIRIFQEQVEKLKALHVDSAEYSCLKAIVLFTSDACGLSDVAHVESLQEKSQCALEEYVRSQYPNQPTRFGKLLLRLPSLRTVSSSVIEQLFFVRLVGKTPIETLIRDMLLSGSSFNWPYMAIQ

INS1 = assay: INS-1E survival protection against cytokine death – cell-based, luminescence, retest, dose response (AID 449756); assay type: functional; conditions: Rattus norvegicus, INS1;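 further: cell death triggered by IL-1 beta plus TNF-alpha plus IFN-gamma mixture; protective hits raise ATP signal compared with cytokine alone wells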
[20] = molecular target: T2, Serine/threonine-protein phosphatase (Candida dubliniensis (strain CD36 / CBS 7987 / NCPF 3949 / NRRLY-17841) (Yeast), UniProt B9W6M3); assay: blockers of CaCl2-induced CDRE-lacZ signaling – S. cerevisiae, luminescence, secondary, dose response (AID 2388); assay type: functional, cell-based;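 further: yeast reporter cells carrying a calcineurin-responsive lacZ construct stimulated with calcium chloride; luminescent beta-galactosidase reporter signal in whole cells rather than isolated phosphatase activity; potency for inhibition where a drop in reporter signal means calcineurin blockade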
T2 sequence (B9W6M3 whole entry): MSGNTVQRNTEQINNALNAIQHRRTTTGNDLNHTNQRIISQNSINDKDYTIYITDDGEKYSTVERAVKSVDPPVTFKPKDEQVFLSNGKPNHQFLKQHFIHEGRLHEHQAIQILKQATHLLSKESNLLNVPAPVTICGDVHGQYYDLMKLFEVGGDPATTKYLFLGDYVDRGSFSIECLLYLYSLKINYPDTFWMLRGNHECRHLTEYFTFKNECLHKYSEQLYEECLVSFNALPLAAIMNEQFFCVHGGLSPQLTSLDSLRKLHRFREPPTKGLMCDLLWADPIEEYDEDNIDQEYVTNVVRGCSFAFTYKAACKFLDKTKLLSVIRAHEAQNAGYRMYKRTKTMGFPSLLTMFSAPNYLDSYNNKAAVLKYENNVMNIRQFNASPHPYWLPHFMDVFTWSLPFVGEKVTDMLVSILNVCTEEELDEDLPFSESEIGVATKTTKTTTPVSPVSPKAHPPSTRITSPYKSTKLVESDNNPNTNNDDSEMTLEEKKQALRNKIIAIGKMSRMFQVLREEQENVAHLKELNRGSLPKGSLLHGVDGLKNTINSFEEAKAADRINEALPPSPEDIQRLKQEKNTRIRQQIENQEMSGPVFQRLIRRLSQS

[21] = NIH-3T3 fibroblast cytotoxicity, dose response, cytotoxicity control, cell-based, fluorescence, Alamar Blue, secondary assay (AID 2327); assay type: functional;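 further: NIH-3T3 mouse fibroblasts cultured with fluconazole at 8 µg/mL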
[22] = non-specific 3'UTR reporter inhibition in Clone20-Shn3RL – cell-based, Renilla luciferase, cherry-picked, counter-screen for Shn3 inhibitor project, dose response (AID 624133); assay type: functional
[23] = loss of viability in HepG2 cells – cell-based, CellTiter-Glo, cherry-picked, cytotoxicity control for Shn3 inhibitor project, dose response (AID 624134); assay type: functional
[24] = reduction of Shn3 3'UTR-driven luciferase in osteoblasts – cell-based, Clone20 osteoblasts, firefly luciferase, cherry-picked, dose response (AID 624132); assay type: functional;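 further: firefly luciferase luminescence from reporter carrying the Shn3 3'UTR in osteoblasts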

Question: For c1ccc(-c2cc(NCCN3CCOCC3)c3ccccc3n2)cc1, which IC50 [1] is on record?
Answer: 2.13 µM (active)

Question: And the IC50 [2]?
Answer: 3.28 µM (active)

Question: Which AC50 [3] does the source give for COc1cc(C(=O)NCCC(=O)NC2CCCc3ccccc32)cc(OC)c1OC (configuration not stated) here?
Answer: 21.7 µM (active)

Question: What about the AC50 [4] of the same compound?
Answer: 26.7 µM (active)

Question: For Cc1noc(C)c1NC(=O)Nc1ccc2c(c1)C(=O)N([C@H](C)CO)C[C@H](C)[C@@H](CN(C)Cc1ccc(C(F)(F)F)cc1)OCCCC[C@@H](C)O2, which AC50 [5] is on record?
Answer: > 30 µM (inactive)

Question: For CC1(C)CC(N2CCN(C(c3ccccc3)c3ccccc3)CC2)=CC(=[N+]2CCCCC2)C1, which EC50 (BJ [6]) is on record?
Answer: 3.77 µM (active)

Question: And the EC50 (BJ [7])?
Answer: 3.51 µM (inconclusive)

Question: And the IC50 [8]?
Answer: > 96.6 µM (inactive)

Question: What about the IC50 [9] of the same compound?
Answer: > 80 µM (inactive)

Question: What about the EC50 (BJ [10]) of the same compound?
Answer: 2.36 µM (active)

Question: And the EC50 [11]?
Answer: 3.82 µM (active)

Question: With Cc1c(C(=O)NCc2cccc(C(F)(F)F)c2)sc(=O)n1Cc1ccc(C(=O)N(C)C)cc1 as the compound, how does the AC50 [12] read?
Answer: > 52 µM (inactive)

Question: What about the AC50 (cells [13]) of the same compound?
Answer: > 52 µM (inactive)

Question: For O=C(Cn1cnc2ccccc2c1=O)Nc1ccc(S(=O)(=O)N2CCOCC2)cc1, which IC50 [14] is on record?
Answer: > 109 µM (inactive)

Question: What about the IC50 [15] of the same compound?
Answer: > 83.3 µM (inactive)

Question: What does the source list for CC(Nc1ncnc2ccccc12)c1ccccc1 (configuration not stated)?
Answer: EC50 [16]: > 160 µM (inactive); EC50 [17]: 0.404 µM (active); IC50 (Galanin receptor type 3): 0.128 µM (active); EC50 (cells [18]): > 29.9 µM (inactive); IC50 [19]: 2.41 µM (active); AC50 (INS1): 1.98 µM (active); EC50 [20]: > 180 µM (inactive); IC50 [9]: > 80 µM (inactive); EC50 [21]: > 160 µM (inactive); AC50 [22]: 1.14 µM (active); AC50 [23]: 1.21 µM (active); AC50 [24]: 0.355 µM (active)

Reference: ChEMBL document CHEMBL1201862, “PubChem BioAssay data set” (2004)
